Patent publication USRE48461E1, “Modulation of androgen receptor expression” (Ionis Pharmaceuticals, Inc., priority 2012, dated 2021)
Oligonucleotides are written 5' to 3', each unit as a sugar letter and its base; * is a phosphorothioate linkage, no mark a phosphodiester; rarer units and linkages stand in square brackets, end groups in braces. Plain capitals give the bases only. k = constrained ethyl (cEt); [5mC] = 5-methylcytosine; d = 2'-deoxy (DNA)

What was measured:
[1] = test system: KLK3 mRNA; assay: KLK3 mRNA (AR target gene) in C4-2B MR cells; format: cell-based, human
[2] = test system: KLK2 mRNA; assay: KLK2 mRNA (AR target gene) in C4-2B MR cells; format: cell-based, human

**Q.** For “549372 (kA*kA*kG*dT*dT*dG*dT*dA*dG*dT*dA*dG*dT*k[5mC]*kG*k[5mC]) [compound 549372]”, which “Percent inhibition of KLK3 mRNA in C4-2B MR cells” value (“Percent inhibition of KLK3 mRNA” for short) ([1]; 0.04 μM) is on record?
**A.** 17%

**Q.** What about the “Percent inhibition of KLK3 mRNA” value ([1]; 0.20 μM) of the same substance?
**A.** 35%

**Q.** What about the “Percent inhibition of KLK3 mRNA” value ([1]; 1.00 μM) of the same substance?
**A.** 68%

**Q.** What about the “Percent inhibition of KLK3 mRNA” value ([1]; 5.00 μM) of the same substance?
**A.** 80%

**Q.** And the “Percent inhibition of KLK2 mRNA in C4-2B MR cells” value (“Percent inhibition of KLK2 mRNA” for short) ([2]; 0.04 μM)?
**A.** 14%

**Q.** What about the “Percent inhibition of KLK2 mRNA” value ([2]; 0.20 μM) of the same substance?
**A.** 16%

**Q.** And the “Percent inhibition of KLK2 mRNA” value ([2]; 1.00 μM)?
**A.** 57%

**Q.** What about the “Percent inhibition of KLK2 mRNA” value ([2]; 5.00 μM) of the same substance?
**A.** 87%
